Key:
[1] = molecular target: serine/threonine protein kinase B (PknB); assay: SPR; assay type: binding, Trueperella pyogenes
PknB (His-PknB) [2] = molecular target: T1, PknB (His-PknB) (Trueperella pyogenes, UniProt A0ABV3NC81); assay: SPR; assay type: binding; conditions: 1x PBS-P buffer; luteolin 0.3125-10 μmol/L (KD lies above the tested range)
T1 sequence (A0ABV3NC81 1-331): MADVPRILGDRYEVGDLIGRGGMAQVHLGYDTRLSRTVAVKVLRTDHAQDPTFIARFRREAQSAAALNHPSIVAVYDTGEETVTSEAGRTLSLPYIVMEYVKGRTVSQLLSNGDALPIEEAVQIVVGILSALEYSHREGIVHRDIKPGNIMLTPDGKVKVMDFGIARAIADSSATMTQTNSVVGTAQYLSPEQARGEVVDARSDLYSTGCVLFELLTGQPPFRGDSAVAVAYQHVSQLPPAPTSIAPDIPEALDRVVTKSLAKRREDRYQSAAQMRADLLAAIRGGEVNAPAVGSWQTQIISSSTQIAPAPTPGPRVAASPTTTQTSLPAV

PknB (His-PknB) [3] = molecular target: T1, PknB (His-PknB); assay: ATP consumption luminescence; assay type: biochemical; conditions: 20 μM ATP, 10 mM MgCl2, 50 mM Tris-HCl pH 7.8, 1 mM DTT, 25 °C, 30 min

O=c1cc(-c2ccc(O)c(O)c2)oc2cc(O)cc(O)c12 [luteolin] gave a Kd [1] of 312 µM, a Kd (PknB (His-PknB) [2]) of 312 µM and an IC50 (PknB (His-PknB) [3]) of 221 µM.
